Assay results taken from patent US8329704B2, “Substituted pyrazinone derivatives for use in MCH-1 mediated diseases” (Janssen Pharmaceutica, N.V., priority 2005, dated 2012).
Counter-ions that a name gives are not always drawn.

Tests used:
human MCH-1 receptor = target: T1, human MCH-1 receptor (Homo sapiens, UniProt Q99705); assay: Ca2+ mobilization experiment for the MCH-1 receptor (FLIPR), inhibition of MCH-induced Ca2+ mobilization; format: cell-based; settings: CHO cells stably expressing human MCH-1 receptor, inhibition of MCH-induced Ca2+ response, read-out: MCH-1 pIC50 (converted)
T1 construct: expressed in transfected cells
Outline: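 Calcium-dye loading (kit with probenecid) of CHO cells stably expressing human MCH-1 ran 90 min at 37C. Cells were then preincubated with compound for 20 min at RT before a submaximal MCH challenge, and Ca2+ was recorded by FLIPR. Responses were expressed as % of compound-free response, and pIC50 came from sigmoidal fits.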

MCH-1 receptor = target: T2, MCH-1 receptor (Rattus norvegicus, UniProt P97639); settings: rodents tests; Nat. Med. (2002) 8, 825-830; cited from earlier work
T2 construct: host or cells: rodents in vivo
T2 sequence (P97639 whole entry): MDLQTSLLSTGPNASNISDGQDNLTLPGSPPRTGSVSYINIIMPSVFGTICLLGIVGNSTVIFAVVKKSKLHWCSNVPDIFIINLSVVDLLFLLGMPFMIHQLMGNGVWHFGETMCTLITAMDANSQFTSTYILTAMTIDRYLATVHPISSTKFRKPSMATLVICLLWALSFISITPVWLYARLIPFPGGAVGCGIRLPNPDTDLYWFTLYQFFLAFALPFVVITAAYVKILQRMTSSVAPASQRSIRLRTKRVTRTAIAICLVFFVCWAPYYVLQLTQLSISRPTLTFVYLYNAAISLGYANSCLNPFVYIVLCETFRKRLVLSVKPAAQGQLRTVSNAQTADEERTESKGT

T1 sequence (Q99705 whole entry): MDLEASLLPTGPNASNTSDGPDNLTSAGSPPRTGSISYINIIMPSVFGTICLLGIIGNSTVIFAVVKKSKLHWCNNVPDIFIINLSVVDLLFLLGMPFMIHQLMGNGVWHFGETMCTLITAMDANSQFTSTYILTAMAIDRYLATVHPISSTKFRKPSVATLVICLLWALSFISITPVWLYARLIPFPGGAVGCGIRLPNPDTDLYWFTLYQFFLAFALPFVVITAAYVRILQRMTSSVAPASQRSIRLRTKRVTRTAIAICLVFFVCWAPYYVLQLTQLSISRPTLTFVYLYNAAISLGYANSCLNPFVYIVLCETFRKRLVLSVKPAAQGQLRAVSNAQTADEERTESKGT

melting point [°C] | IC50 (human MCH-1 receptor) [nM] | Structure (SMILES) | antidepressant- and anxiolytic-like effects (MCH-1 receptor)
198.7 |  | COc1cc(-n2ccnc(NCCOc3ccccc3)c2=O)ccc1OCCN1CCCC1 (as salt: HCl) [1-67] | 
234.9 |  | COc1cc(-n2ccnc(NCCOc3ccccc3)c2=O)ccc1OCCN1CCC(F)CC1 (as salt: HCl) [1-70] | 
103.6 | 251 | CN(CCO)CCOc1ccc(-n2ccnc(NCCOc3ccccc3)c2=O)cc1 [1-26] | 
105.9 | 501 | CC(=O)N(C)CCOc1ccc(-n2ccnc(NCCOc3ccccc3)c2=O)cc1 [1-30] | 
138.1 | 501 | O=c1c(NCCOc2ccccc2)nccn1-c1ccc(OCCN2CCOCC2)cc1 [1-44] | 
120.2 | 31.6 | O=c1c(NCCc2ccccc2)nccn1-c1ccc(OCCN2CCCC2)c(Cl)c1 [2-03] | 
101.1 | 39.8 | COc1cc(-n2ccnc(NCCc3ccccc3)c2=O)ccc1OCCN1CCCC1 [2-04] | 
79.4 | 20 | COc1cc(-n2ccnc(SCCc3ccccc3)c2=O)ccc1OCCN1CCCC1 [2-11] | 
> 300 | 79.4 | COc1cc(-n2ccnc(NCCc3ccccc3)c2=O)ccc1N1CCC(N2CCOCC2)C1 (stereo not shown) [3-21] | 
> 300 | 63.1 | COc1cc(-n2ccnc(NCCc3ccccc3)c2=O)ccc1NCCCN1CCOCC1 [3-30] | 
151.6 | 39.8 | COc1cc(-n2ccnc(NCCc3ccccc3)c2=O)ccc1OC1CCNC1 (stereo not shown) [3-31] | 
151.2 | 25.1 | O=c1c(NCCc2ccccc2)nccn1-c1ccc(OCCN2CCC(O)CC2)c(Cl)c1 [3-81] | 
121.8 | 50.1 | CC(=O)N1CCN(CCOc2ccc(-n3ccnc(NCCc4ccccc4)c3=O)cc2Cl)CC1 [3-83] | 
 | 794 | CC(=O)N(C)C1CCN(c2ccc(-n3ccnc(NCCOc4ccccc4)c3=O)cn2)C1 (stereo not shown) [3-88] | 
 | 3980 | O=c1c(NCCOc2ccccc2)nccn1-c1ccc(OCCN2CCCC2)nc1 [3-91] | 
 | 79.4 | O=c1c(NCCc2ccccc2)nccn1-c1ccc2c(c1)OCC(CN1CCOCC1)=C2 [3-92] | 
 | 1260 | COc1cc(-n2ccnc(N3CCCC(c4ccccc4)C3)c2=O)ccc1OCCN1CCCC1 (stereo not shown) [4-01] | 
 | 631 | COc1cc(-n2ccnc(N3CCC(Oc4ccccc4)CC3)c2=O)ccc1OCCN1CCCC1 [4-02] | 
 | 2000 | COc1cc(-n2ccnc(N3CCCC(c4ccc(F)cc4)C3)c2=O)ccc1OCCN1CCCC1 (stereo not shown) [4-03] | 
 | 316 | COc1cc(-n2ccnc(N3CCC(c4ccc(C)cc4)C3)c2=O)ccc1OCCN1CCCC1 (stereo not shown) [4-04] | 
 | 2000 | COc1cc(-n2ccnc(N3CCC(c4cccc(C(F)(F)F)c4)C3)c2=O)ccc1OCCN1CCCC1 (stereo not shown) [4-05] | 
 | 6310 | COc1cc(-n2ccnc(N3CCC(c4ccccc4OC)C3)c2=O)ccc1OCCN1CCCC1 (stereo not shown) [4-06] | 
 | 631 | COc1cccc(C2CCN(c3nccn(-c4ccc(OCCN5CCCC5)c(OC)c4)c3=O)C2)c1 (stereo not shown) [4-07] | 
 | 794 | COc1cc(-n2ccnc(N3CCC(c4ccc(Cl)c(Cl)c4)C3)c2=O)ccc1OCCN1CCCC1 (stereo not shown) [4-08] | 

melting point [°C] | IC50 (human MCH-1 receptor) [nM] | Structure (SMILES) | antidepressant- and anxiolytic-like effects (MCH-1 receptor)
 | 39.8 | COc1cc(-n2ccnc(SCCc3ccccc3)c2=O)ccc1N1CCC(O)C1 (stereo not shown) [6-01] | 
 | 10 | CN[C@H]1CCN(c2ccc(-n3ccnc(SCCc4ccccc4)c3=O)cc2OC)C1 [6-02] | 
 | 12.6 | CN[C@@H]1CCN(c2ccc(-n3ccnc(SCCc4ccccc4)c3=O)cc2OC)C1 [6-03] | 
113.2 | 25.1 | CNC1CCN(c2ccc(-n3ccnc(SCCc4ccccc4)c3=O)cc2OC)C1 (stereo not shown) [6-04] | 
 | 12.6 | COc1cc(-n2ccnc(SCCc3ccccc3)c2=O)ccc1N1CC[C@H](N(C)C)C1 [6-05] | 
 | 15.8 | COc1cc(-n2ccnc(SCCc3ccccc3)c2=O)ccc1N1CC[C@@H](N(C)C)C1 [6-06] | 
126.5 | 20 | COc1cc(-n2ccnc(SCCc3ccccc3)c2=O)ccc1N1CCC(N(C)C)C1 (stereo not shown) [6-07] | 
105.5 | 31.6 | COc1cc(-n2ccnc(SCCc3ccccc3)c2=O)ccc1N1CCC(N(C)C(C)=O)C1 (stereo not shown) [6-08] | 
 | 31.6 | COc1cc(-n2ccnc(SCCc3ccccc3)c2=O)ccc1N1CCC(N2C(C)CCCC2C)C1 (stereo not shown) [6-09] | 
 | 63.1 | COc1cc(-n2ccnc(SCCc3ccccc3)c2=O)ccc1N1CCOCC1 [6-10] | 
 | 126 | COc1cc(-n2ccnc(SCCc3ccccc3)c2=O)ccc1N1CCC(O)CC1 [6-11] | 
 | 25.1 | COc1cc(-n2ccnc(SCCc3ccccc3)c2=O)ccc1C=CCN1CCCC1 [6-12] | 
 | 20 | COc1cc(-n2ccnc(SCCc3ccccc3)c2=O)ccc1C=CCN1CCOCC1 [6-13] | 
 | 100 | COc1cc(-n2ccnc(SCCc3ccccc3)c2=O)ccc1OC1CCNC1 (stereo not shown) [6-14] | 
 | 15.8 | COc1cc(-n2ccnc(SCCc3ccccc3)c2=O)ccc1OC1CCN(C)C1 (stereo not shown) [6-15] | 
 | 25.1 | COc1cc(-n2ccnc(SCCc3ccccc3)c2=O)ccc1OC1CCN(C(C)C)C1 (stereo not shown) [6-16] | 
 | 15.8 | CCCN1CCC(Oc2ccc(-n3ccnc(SCCc4ccccc4)c3=O)cc2OC)C1 (stereo not shown) [6-17] | 
> 300 | 316 | COc1cc(-n2ccnc(SCCc3ccccc3)c2=O)ccc1NC(=O)CN1CCCC1 [6-18] | 
 | 31.6 | COc1cc(-n2ccnc(NCCCOc3ccccc3)c2=O)ccc1OC1CCNCC1 [7-01] | 
 | 126 | COc1cc(-n2ccnc(NCCCOc3ccccc3)c2=O)ccc1OC1CCN(C(=O)OC(C)(C)C)CC1 [7-02] | 
 | 31.6 | COc1cc(-n2ccnc(NCCCOc3ccccc3)c2=O)ccc1OCCN(C)C(C)=O [7-03] | 
177 | 20 | O=c1c(NCCc2ccccc2)nccn1CCc1ccc(CN2CCCC2)cc1 [9-01] | 
 | 39.8 | O=c1c(NCCc2ccccc2)nccn1CCc1ccc(CN2CCOCC2)cc1 [9-02] | 
 |  | COCC1=C(C(=O)OC)[C@H](c2ccc(F)c(F)c2)N(C(=O)NCCCN2CCC(c3cccc(NC(C)=O)c3)CC2)C(=O)N1 [SNAP-7941] | antidepressant- and axiolytic-like affects
